Holding throughout (assay): inhibition of tumour cell growth, NCI panel, 48 h
The test system of assay [1] is CCRF-CEM leukemia.
Assay [2] has as its system EKVX NSCLC.
Assay [3] concerns HT29 colon.
In assay [4] the test system is KM12 colon.
Assay [5] relates to MDA-MB-231 breast.
Assay [6] has as its system NCI-H23 lung.
The subject of assay [7] is NCI-H460 lung.
Assay [8] concerns OVCAR-5 ovarian.
Assay [9] relates to SK-MEL-2 melanoma.
The test system of assay [10] is SK-MEL-5 melanoma.

This is an account of results in PubChem BioAssay (NCI).

The structures appear in SMILES notation.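 Values below derive from 48-hour exposures of cells grown in 96-well plates, with endpoints linearly interpolated between the two concentrations bracketing the appropriate inhibition level. GI50 is the concentration that inhibits growth by half. TGI marks complete inhibition of growth.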 Some results are limits rather than exact numbers.

Regarding `CCC1(N2C(=O)c3c(F)c(F)c(F)c(F)c3C2=O)C(=O)NC(=O)N(c2ccccc2)C1=O` (stereo not drawn), the GI50 in [1] is 1.31 µM; in [2], 2.77 µM; in assay [3], 2.23 µM; in [4], 2.58 µM; in assay [5], 1.7 µM; in assay [6] it was 1.99 µM. The GI50 in [7] was 3.22 µM; in assay [8], 1.69 µM; in assay [9], 3.84 µM. Besides, the TGI in assay [1] stood at 3.8 µM; in [2], 8.01 µM; in assay [3], 4.89 µM; in [4], 8.31 µM; in [5], 4.03 µM; in [6], 4.02 µM. Further, the TGI was 11.5 µM in [7], 3.43 µM in assay [8] and above 100 µM in [9].
In the case of `COc1ncnc2c(-c3ccco3)cn(COCc3ccccc3)c12`, the GI50 in assay [1] is above 50 µM; in assay [2], 11.5 µM; in assay [3], above 50 µM; in assay [4], above 50 µM; in assay [5] it was above 50 µM; in [6], above 50 µM. The GI50 in assay [8] was above 50 µM; in [9], 48.8 µM; in assay [10] it was 1.28 µM. Moreover, the TGI in assay [1], in [2], in assay [3], in assay [4], in assay [5] and in assay [6] was above 50 µM in each case. Besides, the TGI in [8], in assay [9] and in assay [10] was above 50 µM in each case.
In the case of `CC1(C)CC2(C)OC2C2(C1)N=NC(=Nc1ccccc1)O2` (stereo not drawn), the GI50 in assay [1] was 2.46 µM; in [3], 2.95 µM; in assay [4] it was 13.6 µM; in assay [5], 2.61 µM; in assay [6] it was 5.93 µM; in assay [7] it was 11.3 µM. For the same molecule, the results for the GI50 in [8], in assay [9] and in assay [10] were 11.2 µM, 10.5 µM and 5.48 µM, respectively. In addition, the TGI in [1] was found to be 8.07 µM; in assay [3], 10.9 µM; in assay [4], 28.6 µM; in assay [5], 7.75 µM; in assay [6], 29.9 µM; in [7] it was 31.5 µM. In addition, the TGI in [8] worked out at 26.2 µM; in assay [9], 24.3 µM; in assay [10] it was 18.5 µM.
Turning to `CN1c2ccccc2C(=O)Nc2cnc(Cl)nc21`, the TGI in assay [1], in [2], in assay [3], in assay [4], in assay [5] and in assay [6] was above 100 µM in each case. In addition, the TGI in [8], in assay [9] and in assay [10] was above 100 µM in each case.
As for `O=C(CC(C(=O)O)N1CCOCC1)c1ccccc1` (stereo not drawn), the TGI in [1] is 15 µM; in assay [2] it was 38.4 µM; in assay [3], 32.1 µM; in assay [5] it was 32.4 µM; in assay [6], 40.6 µM; in assay [7], 42.1 µM. Moreover, the TGI stood at 47.3 µM in assay [8], 34.9 µM in assay [9] and 43 µM in assay [10].
`C[C@]12CC[C@@H]3c4ccc(O)cc4CC[C@H]3[C@@H]1CC[C@@H]2NS(=O)(=O)c1ccc(-c2ccccc2)cc1`: the GI50 in assay [1] is 3.34 µM; in assay [3], 3.3 µM; in [4], 3.81 µM; in assay [5], 4.58 µM; in [6], 3.49 µM; in [7], 3.05 µM. In addition, the GI50 in [8] is 4.76 µM; in assay [9] it was 3.78 µM; in assay [10] it was 1.71 µM. The TGI in assay [1] is above 100 µM; in assay [3], 9.16 µM; in assay [4], 18.4 µM; in assay [5], 19.6 µM; in assay [6] it was 17.2 µM; in assay [7] it was 9.48 µM. Further, the TGI in [8] was 19.2 µM; in [9] it was 13.6 µM; in [10], 3.26 µM.
`CN1C(=O)C23CC4=CC=CC(O)C4N2C(=O)C1(CO)SS3` (stereo not drawn): the TGI in assay [2] is 1.33 µM; in [3], 11.4 µM; in assay [4], 0.453 µM; in [5] it was 0.373 µM; in [6], 0.348 µM; in assay [7] it was 0.801 µM. The figures for the TGI in assay [8], in assay [9] and in [10] were 0.149 µM, 0.617 µM and 0.38 µM, respectively.
With `CCOC(=O)Cc1csc(NC(=O)C(OC(=O)c2ccc(N)cc2)c2ccccc2)n1` (stereo not drawn), the GI50 in assay [2] is above 100 µM; in [3], 39.9 µM; in assay [4] it was 37.5 µM; in assay [5] it was 31.6 µM; in [7], 32.7 µM; in assay [8] it was above 100 µM. In addition, the results for the GI50 in [9] and in assay [10] were 40.2 µM and 18.9 µM, respectively. Besides, the TGI in assay [2] is above 100 µM; in assay [3], above 100 µM; in assay [4], above 100 µM; in assay [5], 97.1 µM; in [7], above 100 µM; in assay [8] it was above 100 µM. Also, the TGI was above 100 µM in [9] and 39.1 µM in assay [10].
Take `O=c1c2cc(F)ccc2sc2c(NCCCN3CCCC3)nc3ccccc3c12`: the GI50 in assay [1] is 2.02 µM; in [2], 2.58 µM; in assay [5], 1.55 µM; in [6] it was 1.89 µM; in assay [8] it was 1.85 µM; in assay [9], 2.19 µM. Further, in [10], the GI50 was 1.69 µM. In addition, the TGI in [1] was found to be 4.51 µM; in assay [2], 8.48 µM; in assay [5], 3.2 µM; in [6], 3.69 µM; in assay [8] it was 3.74 µM; in assay [9] it was 4.77 µM. In assay [10], the TGI was 3.07 µM.
Consider `CN1CC(C(=O)NC2(C)OC3(O)C4CCCN4C(=O)C(Cc4ccccc4)N3C2=O)C=C2c3cccc4[nH]cc(c34)CC21` (stereo not drawn), for which the TGI in assay [1] is above 100 µM; in [2], above 100 µM; in assay [3] it was 71.1 µM; in [4], 99.6 µM; in assay [5], 45.5 µM; in assay [6], 46.9 µM. Also, the TGI was 44.9 µM in [8], 35.1 µM in assay [9] and 30.6 µM in assay [10].
